Legend:
MDA-MB-231 cells [1] = assay: Cell internalization by flow cytometry (percentage of positive cells); format: cell-based, human; conditions: 0.5 µM, 24 h
Experimental: Six-well plates were prepared with 1 × 10^5 MDA-MB-231 cells per well in complete RPMI media (2 mL) and incubated at 37 °C in 5% CO2 for 48 h. The media was removed from each well and media solutions of control porphyrin (ATPP) and POSSPs 1–5 (2 mL, 0.5 µM) were added to the wells. The cells were incubated at 37 °C in 5% CO2 atmosphere for 24 h. The cell media was removed from the wells, and the cells were washed with phosphate buffer solution two times. The cells were incubated for 3–5 min in the presence of trypsin (500 µL). Cells were removed and transferred to a centrifuge tube. Media (500 µL) was added to each well to remove any remaining cells and mixed with the previous solution. The cell pellet was obtained after centrifugation (2.5k RPM, 10 min). The supernatant was discarded, and phosphate buffer solution (500 µL) was added to each tube. The cell pellet was mixed and transferred to flow cytometry tubes. The cell internalization of POSSP compounds was measured as the percentage of positive cells using a flow cytometer (BD LSRFortessa).

MDA-MB-231 cells [2] = assay: In vitro phototoxicity, MTS assay after red light (630 nm) irradiation; format: cell-based, human; conditions: for phototoxicity (in words): highest concentration evaluated (0.5 µM), 630 nm light; for reduction in cell proliferation: 0.5 µM, 48 h incubation, 630 nm 24.5 mW/cm2 20 min
Experimental: (§1) The phototoxicities of ATPP, TAPP, compound 6 and POSSPs 1–5 were tested by using the MTS assay. For this study, MDA-MB-231 cells were seeded in a 96-well plate at a density of 5 × 10^3 cells per well in 100 µL of complete media and incubated at 37 °C in 5% CO2 atmosphere for 24 h. After removing the cell culture medium, POSSPs 1–5 at different concentrations (0.01–0.5 µM) were prepared in cell media from a stock solution in DMSO with a final volume of the organic solvent not larger than 1% vol. After 48 h of incubation in the presence of POSSPs, the culture media was removed, and the cells were washed twice with phosphate buffer solution. MDA-MB-231 cells were illuminated with the red light (630 nm) at a fluence rate of 24.5 mW/cm^2 for 20 min. Control experiments were maintained in the same conditions, but in the dark for the same interval of time. After irradiation, the media was replaced by fresh media and the cells were allowed to grow for an additional 24 h. The cyto- and phototoxicities of compound 6 and POSSPs 4 and 5 were also evaluated following the above described protocol, but using concentrations ranging 0.01–100 µM.
To quantify the phototoxic or dark toxicity effects of the experiments above described, the treated MDA-MB-231 cells were subjected to cell viability assay using the CellTiter 96® Aqueous solution assay. To perform the assay, the cell media was removed, and the cells were washed once with phosphate buffer solution. Fresh media (100 µL) together with 20 µL of CellTiter 96® was added into each well and incubated for 2–3 h at 37 °C in 5% CO2 atmosphere. Cell viability (%) was calculated as follows: viability = (Asample/Acontrol) × 100%, where Asample and Acontrol denote absorbance values of the sample and control wells measured at 490 nm, respectively. The results are reported as the average ± SD of three experiments. The IC50 values were determined using GraphPad Prism (v8.1.2 for macOS, La Jolla California, CA, USA) fitting the viability data to a sigmoidal curve mathematical model.

[3] = Singlet oxygen quantum yield, indirect method with DMA as 1O2 probe in DMF; format: physicochemical; conditions: for ΦΔ (1O2 quantum yield): DMA probe, irradiated at 515 nm, relative to TPP (ΦΔ = 0.62), n = 3
Experimental: The ^1O2 quantum yield (ΦΔ) of the POSSP compounds in dimethyl formamide (DMF) was indirectly determined using 9,10-dimethylanthracene (DMA) as ^1O2 probe. DMA reacts with ^1O2, undergoing a 1,4-cycloaddition that is detected as a decrease in the intensity of the DMA absorption band at 379 nm.
The ^1O2 quantum yields (ΦΔ) were determined through an indirect method using dimethylanthracence (DMA) as the singlet oxygen probe. Several solutions containing DMF were air saturated and prepared with DMA (50 μM) and the POSSPs or parent porphyrins (TPP, ATPP, TAPP and compound 6) (5 μM). These solutions were covered with aluminum foil to avoid any premature quenching. Quartz cuvettes (1 cm × 1 cm) were filled with 1 mL of the solution, placed in a spectrofluorophotometer (xenon lamp, Shimadzu RF-5301 PC) and irradiated at 515 nm for 600 s. The absorbance decay of DMA was monitored at 380 nm, which was corrected from light scattering by subtracting the spectra of POSSPs. The ΦΔ was calculated using Equation (2). Φ∆,S = Φ∆,R (mSample/mRerefence) (1−10^−absReference/1−10^−absSample)(2) where Φ∆,S is the singlet oxygen quantum yield of the sample and m is the slope of the plotted data relative to the area of the emission peak against the absorption of the reference.

[4] = Partition coefficient (log POW) from n-butanol/water measurement; format: physicochemical; conditions: n-butanol/water measured at 25 °C, converted with calibration equation
Experimental: The log POW values of the POSSPs and controls were first measured in an n-butanol/water mixture, and then correlated with corresponding values in n-octanol/water using a calibration curve reported in the literature. Distilled water and butanol were thoroughly mixed for 24 h at 25 °C to achieve solvent saturation in both phases. Then, the porphyrin derivatives were added to the mixture and the phases separated through a separatory funnel. The UV–Vis absorbance of the compounds in water and n-butanol was recorded at 420 nm. logPBW = log[(Ab/Aw)(Vw/Vb)](3) where Ab is the absorbance of n-butanol phase; AW is the absorbance of water phase; VW is the volume of water; and Vb is the volume of n-butanol. The partition coefficient of porphyrin derivatives in n-butanol/water was obtained using Equation (3). The log POW values were calculated using Equation (4). logPOW = −0.54 + 1.55 log(PBW)(4)

[5] = Fluorescence quantum yield, comparative method relative to TPP; format: physicochemical; conditions: air-saturated, excitation 520 nm, relative to TPP in benzene, n = 3
Experimental: The fluorescence quantum yields (ΦF) were determined to indirectly characterize the efficiency with which the POSSP compounds undergo intersystem crossing (ISC) from the excited state to the triplet state, an essential step in ROS generation. […] In the case of POSSPs 4 and 5, no differences in the ΦF values were observed.
The fluorescence quantum yields for air-saturated solutions (ΦF) in THF (POSSPs 1–3) or DMSO (POSSPs 4 and 5) were determined using the comparative method. TPP was used as a reference with a fluorescence quantum yield of 0.12 in benzene. The POSSPs concentrations ranged from 0.1 to 10 µM (THF) for POSSPs 1–3 and from 3 to 15 µM (DMSO) for POSSPs 4 and 5. The excitation wavelength was 520 nm and the excitation and emission slit width were 2 nm. The fluorescence quantum yields were measured according to the comparative method described by Equation (1).

MDA-MB-231 cells [6] = assay: In vitro cytotoxicity in the absence of light, MTS assay; format: cell-based, human; conditions: concentrations 0.01–100 µM, Figure S7
Experimental: as §1, with “MDA-MB-231 cells were illuminated with the red light (630 nm) at a fluence rate of 24.5 mW/cm^2 for 20 min. Control experiments were maintained in the same conditions, but in the dark for the same interval of time. After irradiation, the media was replaced by fresh media and the cells were allowed to grow for an additional 24 h.” left out
To quantify the phototoxic or dark toxicity effects of the experiments above described, the treated MDA-MB-231 cells were subjected to cell viability assay using the CellTiter 96® Aqueous solution assay. […] Cell viability (%) was calculated as follows: viability = (Asample/Acontrol) × 100%, where Asample and Acontrol denote absorbance values of the sample and control wells measured at 490 nm, respectively. […] The IC50 values were determined using GraphPad Prism (v8.1.2 for macOS, La Jolla California, CA, USA) fitting the viability data to a sigmoidal curve mathematical model.

[7] = reference value used for calculation; cited from earlier work
[8] = set-up: method as in PMID 10911728; conditions: in benzene; cited from earlier work

Row | Structure (SMILES) | internalization in cells (in words) (MDA-MB-231 cells [1]) | phototoxicity (in words) (MDA-MB-231 cells [2]) | log POW (in words) [4] | ΦF (fluorescence quantum yield) ([5]; in THF) | reduction in cell proliferation (MDA-MB-231 cells [2]) [%] | ΦΔ (1O2 quantum yield) [3] | ΦF (fluorescence quantum yield) ([5]; in DMSO) | other results
1 | Nc1ccc(-c2c3nc(c(-c4ccccc4)c4ccc([nH]4)c(-c4ccccc4)c4nc(c(-c5ccccc5)c5ccc2[nH]5)C=C4)C=C3)cc1 [ATPP, 5-(4-aminophenyl)-10,15,20-(triphenyl)porphyrin, reference compound] | high internalization | minimal PDT effect | – | – | – | – | – | ΦΔ value (in words) ([3]; Table S1): low ΦΔ value
2 | CC(C)C[Si]12O[Si]3(CCCNC(=O)Nc4ccc(-c5c6nc(c(-c7ccccc7)c7ccc([nH]7)c(-c7ccccc7)c7nc(c(-c8ccccc8)c8ccc5[nH]8)C=C7)C=C6)cc4)O[Si]4(CC(C)C)O[Si](CC(C)C)(O1)O[Si]1(CC(C)C)O[Si](CC(C)C)(O2)O[Si](CC(C)C)(O3)O[Si](CC(C)C)(O4)O1 [POSSP 1] | – | – | positive values | 0.14 ± 0.01 | 43 ± 4 | 0.82 ± 0.01 | – | –
3 | O=C(NCCC[Si]12O[Si]3(c4ccccc4)O[Si]4(c5ccccc5)O[Si](c5ccccc5)(O1)O[Si]1(c5ccccc5)O[Si](c5ccccc5)(O2)O[Si](c2ccccc2)(O3)O[Si](c2ccccc2)(O4)O1)Nc1ccc(-c2c3nc(c(-c4ccccc4)c4ccc([nH]4)c(-c4ccccc4)c4nc(c(-c5ccccc5)c5ccc2[nH]5)C=C4)C=C3)cc1 [POSSP 2] | internalized in a much higher percentage than the other POSSPs | did not show significant phototoxicity | positive values | 0.13 ± 0.01 | – | 0.60 ± 0.02 | – | –
4 | NCCC[Si]12O[Si]3(CCCN)O[Si]4(CCCN)O[Si](CCCN)(O1)O[Si]1(CCCN)O[Si](CCCN)(O2)O[Si](CCCN)(O3)O[Si](CCCNC(=O)c2ccc(-c3c5nc(c(-c6ccccc6)c6ccc([nH]6)c(-c6ccccc6)c6nc(c(-c7ccccc7)c7ccc3[nH]7)C=C6)C=C5)cc2)(O4)O1 [POSSP 4] | – | – | Negative log POW values | – | 11 ± 2 | 0.70 ± 0.01 | 0.15 ± 0.01 | –
5 | C[N+](C)(C)CCC[Si]12O[Si]3(CCCNC(=O)c4ccc(-c5c6nc(c(-c7ccccc7)c7ccc([nH]7)c(-c7ccccc7)c7nc(c(-c8ccccc8)c8ccc5[nH]8)C=C7)C=C6)cc4)O[Si]4(CCC[N+](C)(C)C)O[Si](CCC[N+](C)(C)C)(O1)O[Si]1(CCC[N+](C)(C)C)O[Si](CCC[N+](C)(C)C)(O2)O[Si](CCC[N+](C)(C)C)(O3)O[Si](CCC[N+](C)(C)C)(O4)O1 [POSSP 5] | – | did not show significant phototoxicity | Negative log POW values | – | – | 0.66 ± 0.01 | 0.10 ± 0.01 | cytotoxicity at higher concentrations (in words) (MDA-MB-231 cells [6]): structural properties of the molecule also play a role in its toxicity
6 | C1=Cc2nc1c(-c1ccccc1)c1nc(c(-c3ccccc3)c3ccc([nH]3)c(-c3ccccc3)c3ccc([nH]3)c2-c2ccccc2)C=C1 [TPP, 5,10,15,20-(tetraphenyl)porphyrin] | – | – | – | – | – | – | – | ΦΔ (1O2 quantum yield) of reference [7]: 0.62; fluorescence quantum yield of reference [8]: 0.12
